From article PMC6315541, “Nile Tilapia Derived Antimicrobial Peptide TP4 Exerts Antineoplastic Activity Through Microtubule Disruption” (Marine Drugs, 2018)
Entries after “also recorded” stand apart in the source; their conditions may differ.

Columns and labels:
A549 cells = test: Cell viability (CellTiter-Glo ATP assay) in A549 cells; format: cell-based, human; details: 24 h; for relative ATP levels (cell viability): CellTiter-Glo ATP assay, luminescence, mean ± SD of three independent assays, n ≥ 5 wells per dose; for cytotoxicity to A549 cells (in words): doses 3.35-20.12 µM, ATP assay, Figure 6A
Procedure: (§1) Figure 6 Loss of cancer-killing ability in TP4 mutants. (A) Cell viability in A549 cells was determined by the adenosine triphosphate (ATP) assay following treatment with varying doses of TP4 and TP4 mutants for 24 h. Multiple wells were analyzed for each assay. Results represent the mean ± SD. Statistical comparisons between groups were performed using two-way ANOVA: a, not significant; b, p < 0.05; d, p < 0.001. Statistical analyses are shown in Supplementary Table S1. (B) Cells were stained for TP4 (WT panel), FITC (MT-1 to MT-6 panels), α-Tubulin, and F-actin. Hoechst33342 was used for nuclei staining. Boxed regions are magnified in the furthest right panels. […] Bar: 20 μm.
The A549 cell line (Bioresource Collection and Research Center (BCRC) 60074) was purchased from the BCRC and cultured according to BCRC recommendations. For the cell viability and transfection assay, 4–5 × 10^3 cells were seeded into the wells of a 96-well plate and cultured overnight. Cells were then treated according to the indicated doses and times. Cell viability was quantified using the CellTiter-Glo® Luminescent Cell Viability Assay kit (ATP assay) (Madison, WI, USA) as previously described. The luminescent signal was measured using a photometer (SpectraMax® i3, Molecular Devices, Wals, Austria).
For the multi-well based assay, cells were plated at least in quadruplicate. Data were collected from independently repeated experiments (N ≥ 3) and were analyzed by Prism5 software (GraphPad Inc., La Jolla, CA, USA). Statistical significance was determined by a two-tailed Student’s t-test or one-way/two-way analysis of variance (ANOVA) with a Bonferroni post hoc test. Differences were considered statistically significant at p < 0.05. […]
Supplementary Table S1. Cellular toxicit y of TP 4 to A549 cells was evaluated b y cell viability. Results of statis tical tests on data in Figu re 6A are shown. Multiple wells were anal yzed for each ex periment (n ≥ 5 wells per do se). Results represent the mean ± SD from three independent assays. Statistical comparisons between mock versus TP4 treatment groups were performed using two -way ANOVA anal ysis with Bonferroni post-hoc test: a, not signi ficant; b, P < 0.05; c, P < 0.01; d, P < 0.001. […]
(A-G) Th e helical projection plot and s tructural model o f TP4 (A) and TP4 variants (MT-1 to MT-6, B-G ). The helical proj ecti on was produced b y an online helical wheel projection program (http://rzlab.ucr.edu/scripts/wheel/wheel.cgi). Amino acid residues are numbered and each amino acid is connected with lines to indicate its relative position along the helix. The hydrophobic residues are shown as diamonds ; h ydrophilic residues are circles. Residues with negative charge are shown as trian gles and positively charged residues are pentagons. Hydrophobicity is color coded. The

[1] = tested on: microtubule network (α-Tubulin) in A549 cells; test: Immunocytochemistry of microtubule network and peptide uptake in A549 cells; format: cell-based, human; details: A549 cells; TP4 6.71 μM, 3 h; FITC-labeled mutants; Figure 6B
Procedure: To examine whether TP4 may affect microtubule dynamics, A549 cells were treated with TP4, and cytoskeletal elements were analyzed by immunocytochemistry (ICC). […] We then asked whether TP4 treatment may influence tubulin protein levels by performing Western blots on lysates from A549 cells that had been treated with vehicle or TP4. […] We next conducted a microtubule regrowth assay to further address whether TP4 may disrupt microtubule polymerization. TP4 was applied to A549 cells that had been treated with or without Nocodazole (20 μM) treatment for 6 h, which completely depolymerizes the microtubule network. The repolymerization of microtubules was then initialized by the addition of fresh recovery medium, and regrowth was analyzed by ICC.
While the reduced toxicity may result from impaired binding to tubulin, it is also possible that such effects may be caused by conformational changes in the TP4 mutants, see Supplementary Figure S1C,D, which prevent intracellular penetration. To test this possibility, ICC was conducted to evaluate the cellular localization and the effects on microtubules. […] For both Gly and Ala substitution mutants, FITC-labeled TP4 mutants were able to be taken up intracellularly, see Figure 6B, panels MT-1 to MT-6. However, the microtubule network was only affected in MT-1- and MT-4-treated cells and not the other mutant-treated groups, as shown in Figure 6B.
as §1
Cells were stained with TP4 (1:1000), FITC (1:500, ThermoFisher Scientific, clone 1F8-1E4), α-Tubulin (1:500), and appropriate Alexa Flour conjugated secondary antibody (1:500; ThermoFisher Scientific, Eugene, OR, USA). Hochest33342 was used for nuclear staining, and Alexa Fluor 647-conjugated phalloidin (1:200, Thermo Fisher Scientific, Eugene, OR, USA) was used to stain F-actin. For the confocal microscopic analysis, samples were mounted with fluorescent mounting medium (ProLong Gold Antifade Reagent, ThermoFisher Scientific, Eugene, OR, USA) and images were obtained with a FV3000 laser-scanning confocal microscope (Olympus), using a 60 × objective lens (Plapon 60 × OSC2, N.A. 1.4, oil) with the 4′,6-diamidino-2-phenylindole (DAPI) ([…]), green fluorescent protein (GFP) (EX 470, EM 525 for enhanced GFP (EGFP)), and Cy5 ([…]) emission filters. FV31S software (Olympus, Tokyo, Japan) was used for image acquisition.

Substance	relative ATP levels (cell viability) (A549 cells; 3.35 µM)	relative ATP levels (cell viability) (A549 cells; 5.03 µM)	relative ATP levels (cell viability) (A549 cells; 6.71 µM)	relative ATP levels (cell viability) (A549 cells; 20.12 µM)	cytotoxicity to A549 cells (in words) (A549 cells)	effect on microtubule network (α-Tubulin ICC) [1]
MT-1: TP4 mutant, Phe1 to Gly (GIHHIIGGLFSAGKAIHRLIRRRRR)	0.931±0.160	1.044±0.280	0.852 ± 0.145	0.003±0.001	decreased cytotoxicity	affected; also recorded: microtubule abnormalities were observed
MT-4: TP4 mutant, Phe1 to Ala (AIHHIIGGLFSAGKAIHRLIRRRRR)	0.454±0.169	0.241±0.094	0.070±0.045	0.001±0.007	strongly cytotoxic	affected; also recorded: microtubule abnormalities were observed
